Data reported in US6043254A, “Indolinones having kinase-inhibiting activity” (Boehringer Ingelheim Pharma KG, priority 1998, dated 2000).

Legend:
[1] = system: tumour (SK-UT-1B, or non-small cell lung tumour NCI-H460); test: Test 3: in vivo effects on tumour-bearing nude mice; parameters: species or system nude mice (NMRI nu/nu); conditions: 100 mg/kg p.o. once a day for two weeks; male nude mice (n=9); significant, p<0.05
Method: In vivo Effects on Tumour-bearing Nude Mice
10^6 cells [SK-UT-1B, or non-small cell lung tumour NCI-H460 (obtained from ATCC)] in a volume of 0.1 ml were injected subcutaneously into male and/or female nude mice (NMRI nu/nu; 25-35 g; N=10-20); alternatively, small fragments of SK-UT-1B or NCI-H460 cell clumps were implanted subcutaneously. One to three weeks after the injection or implantation a kinase inhibitor was administered daily by oral route for a period of 2 to 4 weeks (by oesophageal tube). The size of the tumour was measured three times a week using a digital sliding gauge. The effect of a kinase inhibitor on the tumour growth was determined as a percentage inhibition compared with a control group treated with placebo.

[2] = system: SK-UT-1B cells (Leimyosarcoma tumour cell line); test: Test 2: inhibition of the proliferation of cultivated human tumour cells (14C-thymidine incorporation); type: cell-based; conditions: Skut1B, 48 hours' incubation, then 14C-thymidine for a further 24 hours, read-out: Inhibiting the proliferation of SKUT-1B cells: IC50
Method: Inhibition of the Proliferation of Cultivated Human Tumour Cells
Cells of the Leimyosarcoma tumour cell line SK-UT-1B (obtained from the American Type Culture Collection (ATCC)) were cultivated in Minimum Essential Medium with non-essential amino acids (Gibco), supplemented with sodium pyruvate (1 mmol), glutamine (2 mmol) and 10% foetal calf serum (Gibco) and harvested during the log-growth phase. Then the SK-UT-1B cells were added to Cytostar® multi-well plates (Amersham) at a density of 4000 cells per well and incubated overnight in an incubator. Various concentrations of the compounds (dissolved in DMSO; final concentration: <1%) were added to the cells. After 48 hours' incubation ^14 C-thymidine (Amersham) was added to each well and incubation was continued for a further 24 hours. The quantity of ^14 C-thymidine incorporated into the tumour cells in the presence of the inhibitor and representing the number of cells in the S phase was measured in a Wallace 1450 Microbeta Liquid Scintillation Counter. IC50 values for the inhibition of proliferation (=inhibition of incorporated ^14 C-thymidine) were calculated, correcting for the background radiation. All the measurements were done twice.

[3] = target: T1, cycline D1/CDK4 (Homo sapiens, UniProt P11802); test: Test 1: inhibition of cycline/CDK enzyme in vitro activity; type: biochemical; conditions: GST-tagged pRB substrate; 45 minutes at 30° C.; 1% DMSO
T1 construct: His6; made in house; host or cells: High Five insect cells (BTI-TN-5B1-4), recombinant baculovirus with two promoters
T1 sequence (P11802 whole entry): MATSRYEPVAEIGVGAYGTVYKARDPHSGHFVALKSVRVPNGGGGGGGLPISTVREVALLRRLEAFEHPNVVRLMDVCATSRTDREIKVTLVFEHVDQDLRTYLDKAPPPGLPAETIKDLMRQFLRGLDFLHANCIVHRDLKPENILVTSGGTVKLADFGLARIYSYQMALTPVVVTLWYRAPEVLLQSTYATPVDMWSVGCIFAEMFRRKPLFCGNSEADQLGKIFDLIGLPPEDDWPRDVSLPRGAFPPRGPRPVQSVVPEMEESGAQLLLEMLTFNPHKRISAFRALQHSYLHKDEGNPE
T1 sequence (P24385 whole entry partner): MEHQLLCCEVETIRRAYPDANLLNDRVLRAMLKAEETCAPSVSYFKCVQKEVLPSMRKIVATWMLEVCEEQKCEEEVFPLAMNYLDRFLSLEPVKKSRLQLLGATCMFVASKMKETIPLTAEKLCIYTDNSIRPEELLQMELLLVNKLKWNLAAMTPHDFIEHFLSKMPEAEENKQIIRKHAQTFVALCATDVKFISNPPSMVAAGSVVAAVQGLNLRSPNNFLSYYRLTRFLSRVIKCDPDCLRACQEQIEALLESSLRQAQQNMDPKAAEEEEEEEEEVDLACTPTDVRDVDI
Excerpt: Inhibition of cycline/CDK Enzyme in vitro Activity
High Five™ insect cells (BTI-TN-5B1-4) which had been infected with a high titre of recombinant baculovirus were used to produce active human cycline/CDK holoenzymes. By using a baculovirus vector which contained two promoters (polyhedrin enhancer promoter, P10 enhancer promoter), GST-tagged cyclines (e.g. cycline D1 or cycline D3) with the corresponding His6 -tagged CDK subunit (e.g. for CDK4 or CDK6) were expressed in the same cell. The active holoenzyme was isolated by affinity chromatography on glutathione sepharose. Recombinant GST-tagged pRB (aa 379-928) was produced in E. coli and purified by affinity chromatography on glutathione sepharose.
The substrates used for the kinase assays depended on the specific kinases. Iistone H1 (Sigma) was used as the substrate for cycline E/CDK2, cycline A/CDK2, cycline B/CDK1 and for v-cycline/CDK6. GST-tagged pRB (aa 379-928) was used as substrate for cycline D1/CDK4, cycline D3/CDK4, cycline D1/CDK6 and for cycline D3/CDK6.
Lysates of the insect cells infected with recombinant baculovirus or recombinant kinases (obtained from the lysates by purification) were incubated together with radiolabelled ATP in the presence of a suitable substrate with various concentrations of the inhibitor in a 1% DMSO solution (dimethyl sulphoxide) for 45 minutes at 30° C. The substrate proteins with associated radioactivity were precipitated with 5% TCA (trichloroacetic acid) in water-repellent PVDF multi-well microtitre plates (Millipore) or with 0.5% phosphoric acid solution on Whatman P81 filters. After the addition of scintillation liquid the radioactivity was measured in a Wallace 1450 Microbeta Liquid Scintillation Counter. For each concentration of the substance double measurements were carried out; IC50 values were calculated for the enzyme inhibition.

Row | Structure (SMILES) | reduction in the tumour size [1] | IC50 [2] [nM] | IC50 [3] [nM]
1 | O=C1Nc2ccc([N+](=O)[O-])cc2/C1=C(/Nc1ccc(-c2c[nH]cn2)cc1)c1ccccc1 [Example 2.5] | around 65% | 340 | 1000
2 | Cn1ccnc1-c1ccc(N/C(=C2\C(=O)Nc3ccc([N+](=O)[O-])cc32)c2ccccc2)cc1 [Example 3.12, 3-{(Z)-1-[4-(1-methyl-1H-imidazol-2-yl)anilino]-1-phenylmethylidene}-5-nitro-2-indolinone] | – | 400 | –
3 | O=C1Nc2ccc([N+](=O)[O-])cc2/C1=C(/Nc1ccc(CN2CCCC2)cc1)c1ccccc1 [Example 3.18, 3-{(Z)-1-[4-((pyrrolidin-1-yl)methyl)anilino]-1-phenylmethylidene}-5-nitro-2-indolinone] | – | 220 | –
4 | O=C1Nc2ccc([N+](=O)[O-])cc2/C1=C(/Nc1ccc(CCN2CCCC2)cc1)c1ccccc1 [Example 4.9, 3-{(Z)-1-[4-(2-(pyrrolidin-1-yl)ethyl)anilino]-1-phenylmethylidene}-5-nitro-2-indolin] | – | – | 55
5 | O=C1Nc2ccc([N+](=O)[O-])cc2/C1=C(/Nc1ccc(CN2C(=O)CCC2=O)cc1)c1ccccc1 [Example 4.11, 3{(Z)-1-[4-((2,5-dioxo-pyrrolidin-1-yl)methyl)anilino]-1-phenylmethylidene}-5-nitro-2-indolinone] | – | 530 | –
6 | O=C1Nc2ccccc2/C1=C(/Nc1ccc(-c2cn3cccnc3n2)cc1)c1ccccc1 [Example 8.3, 3-{(Z)-1-[4-(imidazo[1,2-a]pyrimidin-2-yl)anilino]-1-phenylmethylidene}-2-indolinone] | – | 1300 | –
7 | O=C1Nc2ccc([N+](=O)[O-])cc2/C1=C(/Nc1ccc2c(c1)CCNC2)c1ccccc1 [Example 14.1, 3-{(Z)-1-[(1,2,3,4-tetrahydro-isoquinolin-6-yl)amino]-1-phenylmethylidene}-5-nitro-2-indolinone] | – | – | 150
8 | CC(=O)N1CCc2cc(N/C(=C3\C(=O)Nc4ccc([N+](=O)[O-])cc43)c3ccccc3)ccc2C1 [Example 18.2, 3-{(Z)-1-[(2-acetyl-1,2,3,4-tetrahydro-isoquinolin-6-yl)-amino]-1-phenylmethylidene}-5-nitro-2-indolinone] | – | – | 1400
